According to PMC9492542, “Brain-restricted mTOR inhibition with binary pharmacology” (Nature, 2022):
Values joined by “and” are separate entries in the source; they are usually repeats but may differ in a detail not shown here. Equal values may be shown once. Read-outs that look alike come from different tables or passages of the source.

What was measured:
mTOR [1] = target: T1, mTOR (Homo sapiens, UniProt P42345); experiment: In vitro mTOR kinase inhibition assay (SelectScreen Z'-LYTE), with or without 10 µM FKBP12; format: biochemical; settings: for residual kinase activity (mTOR): listed as RL-1
T1 construct: We performed in vitro kinase assays with purified mTOR protein; purchased SelectScreen Services (Thermo Fisher Scientific)
Description: In vitro kinase inhibition assays were performed by SelectScreen Services (Thermo Fisher Scientific) using either Z’-LYTE (mTOR, Src, Csk, EGFR, HER2 and HGK), Adapta (LRRK2) or LanthaScreen (DDR2) assay format (standardized protocols can be accessed on the SelectScreen website: https://www.thermofisher.com/us/en/home/products-and-services/services/custom-services/screening-and-profiling-services/selectscreen-profiling-service/selectscreen-kinase-profiling-service.html. When indicated, recombinant FKBP12 protein was added to the assay mixture to a final concentration of 10 µM.

human PBMCs [2] = experiment: Proliferation of anti-CD3/anti-CD28 stimulated PBMCs (120 h); format: cell-based; design: PBMC cell proliferation: unit not given here
human PBMCs [3] = experiment: IL-2 secretion of stimulated PBMCs (sandwich ELISA); format: cell-based; design: unit not given here
mTOR [4] = experiment: mTOR signalling in mouse whole brain and skeletal muscle after single i.p. dose (immunoblot, insulin stimulated); format: in vivo; settings: for p-4EBP1 Brain, fold relative to no insulin, normalized to GAPDH / p-4EBP1 Muscle, fold relative to no insulin, normalized to GAPDH / p-RPS6 Brain, fold relative to no insulin, normalized to GAPDH / p-RPS6 Muscle, fold relative to no insulin, normalized to GAPDH: RL1 1 mg/kg, RB 40 mg/kg, insulin 250 mU, listed as RL1
Description: Whole brain and skeletal muscle were analyzed by immunoblot.

GBM43 = experiment: Orthotopic intracranial GBM43-luciferase patient-derived glioblastoma xenograft; settings: GBM43-Luc
[5] = 0.005081 nM RapaLink-1, +10 μM RapaBlock
[6] = 0.005081 nM RapaLink-1, No RapaBlock
[7] = 0.015242 nM RapaLink-1, +10 μM RapaBlock
[8] = 0.015242 nM RapaLink-1, No RapaBlock
[9] = 0.045725 nM RapaLink-1, +10 μM RapaBlock
[10] = 0.045725 nM RapaLink-1, No RapaBlock
[11] = 0.137174 nM RapaLink-1, +10 μM RapaBlock
[12] = 0.137174 nM RapaLink-1, No RapaBlock
[13] = 0.411523 nM RapaLink-1, +10 μM RapaBlock
[14] = 0.411523 nM RapaLink-1, No RapaBlock
[15] = 1.23457 nM RapaLink-1, +10 μM RapaBlock
[16] = 1.23457 nM RapaLink-1, No RapaBlock
[17] = 3.7037 nM RapaLink-1, +10 μM RapaBlock
[18] = 3.7037 nM RapaLink-1, No RapaBlock
[19] = 11.1111 nM RapaLink-1, +10 μM RapaBlock
[20] = 11.1111 nM RapaLink-1, No RapaBlock
[21] = 33.3333 nM RapaLink-1, +10 μM RapaBlock
[22] = 33.3333 nM RapaLink-1, No RapaBlock
[23] = 100 nM RapaLink-1, +10 μM RapaBlock
[24] = 100 nM RapaLink-1, No RapaBlock
[25] = BALB/c nu/nu mice, RapaLink-1 1 mg per kg, RapaBlock 40 mg per kg, 4 h or 24 h

T1 sequence (P42345 1360-2549 limits assumed): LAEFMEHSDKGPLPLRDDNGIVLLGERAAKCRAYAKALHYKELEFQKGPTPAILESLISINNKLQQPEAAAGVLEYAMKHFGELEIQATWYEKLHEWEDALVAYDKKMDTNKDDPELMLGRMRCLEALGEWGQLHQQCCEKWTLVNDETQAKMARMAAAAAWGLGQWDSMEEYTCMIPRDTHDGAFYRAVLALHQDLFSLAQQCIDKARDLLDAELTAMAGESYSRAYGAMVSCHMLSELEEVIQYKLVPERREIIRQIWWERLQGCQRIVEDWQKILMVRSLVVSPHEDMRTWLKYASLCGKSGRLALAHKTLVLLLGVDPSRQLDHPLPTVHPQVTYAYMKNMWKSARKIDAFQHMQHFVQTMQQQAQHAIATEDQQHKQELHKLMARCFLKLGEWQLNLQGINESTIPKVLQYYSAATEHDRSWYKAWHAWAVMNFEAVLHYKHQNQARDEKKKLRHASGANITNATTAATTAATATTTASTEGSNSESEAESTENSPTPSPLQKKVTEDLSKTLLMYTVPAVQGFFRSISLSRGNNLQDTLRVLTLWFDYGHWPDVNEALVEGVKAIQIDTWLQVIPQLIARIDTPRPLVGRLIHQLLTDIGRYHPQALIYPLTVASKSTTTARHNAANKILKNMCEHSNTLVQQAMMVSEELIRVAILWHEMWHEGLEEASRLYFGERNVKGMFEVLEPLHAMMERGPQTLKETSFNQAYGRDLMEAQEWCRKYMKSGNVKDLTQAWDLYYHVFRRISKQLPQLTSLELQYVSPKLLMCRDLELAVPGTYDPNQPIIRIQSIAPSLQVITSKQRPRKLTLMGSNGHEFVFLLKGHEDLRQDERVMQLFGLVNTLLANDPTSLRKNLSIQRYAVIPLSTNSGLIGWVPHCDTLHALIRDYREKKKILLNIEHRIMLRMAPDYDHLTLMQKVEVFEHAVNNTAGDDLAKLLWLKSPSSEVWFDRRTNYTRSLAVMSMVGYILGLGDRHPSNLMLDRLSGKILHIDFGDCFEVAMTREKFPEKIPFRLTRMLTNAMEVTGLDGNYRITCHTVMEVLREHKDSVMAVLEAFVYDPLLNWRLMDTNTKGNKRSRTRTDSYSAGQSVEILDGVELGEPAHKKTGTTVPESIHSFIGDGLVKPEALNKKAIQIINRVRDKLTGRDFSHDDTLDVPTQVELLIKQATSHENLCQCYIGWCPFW

## CO[C@H]1C[C@@H]2CC[C@@H](C)[C@@](O)(O2)C(=O)C(=O)N2CCCC[C@H]2C(=O)O[C@H]([C@H](C)C[C@@H]2CC[C@@H](OCCOCc3cn(CCOCCOCCOCCOCCOCCOCCOCCOCCC(=O)NCCCCn4nc(-c5ccc6oc(N)nc6c5)c5c(N)ncnc54)nn3)[C@H](OC)C2)CC(=O)[C@H](C)/C=C(\C)[C@@H](O)[C@@H](OC)C(=O)[C@H](C)C[C@H](C)/C=C/C=C/C=C/1C [RapaLink-1]
mTOR [1]; 0.00495 nM drug, +FKBP
  residual kinase activity (mTOR): 99
mTOR [1]; 0.00495 nM drug, +FKBP, read-out: residual kinase activity (mTOR)
  remaining activity at 4.95 pM: 95%
mTOR [1]; 0.00495 nM drug, no FKBP
  residual kinase activity (mTOR): 100
mTOR [1]; 0.00495 nM drug, no FKBP, read-out: residual kinase activity (mTOR)
  remaining activity at 4.95 pM: 96%
mTOR [1]; 0.0152 nM drug, +FKBP
  residual kinase activity (mTOR): 103
mTOR [1]; 0.0152 nM drug, +FKBP, read-out: residual kinase activity (mTOR)
  remaining activity at 15.2 pM: 98%
mTOR [1]; 0.0152 nM drug, no FKBP
  residual kinase activity (mTOR): 101
mTOR [1]; 0.0152 nM drug, no FKBP, read-out: residual kinase activity (mTOR)
  remaining activity at 15.2 pM: 100%
mTOR [1]; 0.0457 nM drug, +FKBP
  residual kinase activity (mTOR): 103
mTOR [1]; 0.0457 nM drug, +FKBP, read-out: residual kinase activity (mTOR)
  remaining activity at 45.7 pM: 102%
mTOR [1]; 0.0457 nM drug, no FKBP
  residual kinase activity (mTOR): 99
mTOR [1]; 0.0457 nM drug, no FKBP, read-out: residual kinase activity (mTOR)
  remaining activity at 45.7 pM: 101%
mTOR [1]; 0.137 nM drug, +FKBP
  residual kinase activity (mTOR): 99
mTOR [1]; 0.137 nM drug, +FKBP, read-out: residual kinase activity (mTOR)
  remaining activity at 0.000137 µM: 101%
mTOR [1]; 0.137 nM drug, no FKBP
  residual kinase activity (mTOR): 96
mTOR [1]; 0.137 nM drug, no FKBP, read-out: residual kinase activity (mTOR)
  remaining activity at 0.000137 µM: 97%
mTOR [1]; 0.412 nM drug, +FKBP, read-out: residual kinase activity (mTOR)
  remaining activity at 0.000412 µM: 97%
mTOR [1]; 0.412 nM drug, no FKBP
  residual kinase activity (mTOR): 92
mTOR [1]; 0.412 nM drug, no FKBP, read-out: residual kinase activity (mTOR)
  remaining activity at 0.000412 µM: 95%
mTOR [1]; 1.23 nM drug, +FKBP
  residual kinase activity (mTOR): 86
mTOR [1]; 1.23 nM drug, +FKBP, read-out: residual kinase activity (mTOR)
  remaining activity at 0.00123 µM: 89%
mTOR [1]; 1.23 nM drug, no FKBP
  residual kinase activity (mTOR): 83
mTOR [1]; 1.23 nM drug, no FKBP, read-out: residual kinase activity (mTOR)
  remaining activity at 0.00123 µM: 87%
mTOR [1]; 11.1 nM drug, +FKBP
  residual kinase activity (mTOR): 17
mTOR [1]; 11.1 nM drug, +FKBP, read-out: residual kinase activity (mTOR)
  remaining activity at 0.0111 µM: 14%
mTOR [1]; 11.1 nM drug, no FKBP, read-out: residual kinase activity (mTOR)
  remaining activity at 0.0111 µM: 15%
mTOR [1]; 33.3 nM drug, +FKBP
  residual kinase activity (mTOR): 4
mTOR [1]; 33.3 nM drug, +FKBP, read-out: residual kinase activity (mTOR)
  remaining activity at 0.0333 µM: 2%
mTOR [1]; 33.3 nM drug, no FKBP
  residual kinase activity (mTOR): 2
mTOR [1]; 33.3 nM drug, no FKBP, read-out: residual kinase activity (mTOR)
  remaining activity at 0.0333 µM: 3%
mTOR [1]; 100 nM drug, +FKBP
  residual kinase activity (mTOR): 2
mTOR [1]; 100 nM drug, +FKBP, read-out: residual kinase activity (mTOR)
  remaining activity at 0.1 µM: 3%
mTOR [1]; […] drug, +FKBP
  residual kinase activity (mTOR): 57
mTOR [1]; […] drug, +FKBP, read-out: residual kinase activity (mTOR)
  remaining activity at […]: 55%
mTOR [1]; […] drug, no FKBP
  residual kinase activity (mTOR): 54
mTOR [1]; […] drug, no FKBP, read-out: residual kinase activity (mTOR)
  remaining activity at […]: 56%
mTOR [1]; purified mTOR, whether FKBP12 was present
  IC50 for mTOR kinase activity: identical half-maximal inhibitory concentration (IC50) values as MLN0128
Human PBMCs [2]; [5]
  PBMC cell proliferation: 104.4 and 111.7 and 94.4
Human PBMCs [2]; [6]
  PBMC cell proliferation: 115.8 and 102.5 and 98.3
Human PBMCs [2]; [7]
  PBMC cell proliferation: 110 and 113.9 and 99.3
Human PBMCs [2]; [8]
  PBMC cell proliferation: 121.8 and 109.1 and 110.9
Human PBMCs [2]; [9]
  PBMC cell proliferation: 112.2 and 110.5 and 104.3
Human PBMCs [2]; [10]
  PBMC cell proliferation: 121.5 and 108 and 104.7
Human PBMCs [2]; [11]
  PBMC cell proliferation: 110.3 and 116.4 and 104.2
Human PBMCs [2]; [12]
  PBMC cell proliferation: 113.1 and 112.8 and 102.9
Human PBMCs [2]; [13]
  PBMC cell proliferation: 114.7 and 112.8 and 107.7
Human PBMCs [2]; [14]
  PBMC cell proliferation: 98.2 and 98.7 and 94.9
Human PBMCs [2]; [15]
  PBMC cell proliferation: 109.6 and 111.8 and 107
Human PBMCs [2]; [16]
  PBMC cell proliferation: 44.3 and 45.5 and 45.3
Human PBMCs [2]; [17]
  PBMC cell proliferation: 105.8 and 104.9 and 94.5
Human PBMCs [2]; [18]
  PBMC cell proliferation: 29.2 and 28.4 and 25.5
Human PBMCs [2]; [19]
  PBMC cell proliferation: 84.3 and 94.6 and 81
Human PBMCs [2]; [20]
  PBMC cell proliferation: 13.5 and 22.4 and 19.1
Human PBMCs [2]; [21]
  PBMC cell proliferation: 64.4 and 70.2 and 62.9
Human PBMCs [2]; [22]
  PBMC cell proliferation: 20.6 and 20 and 17.2
Human PBMCs [2]; [23]
  PBMC cell proliferation: 39.8 and 43.7 and 38.7
Human PBMCs [2]; [24]
  PBMC cell proliferation: 17.8 and 16.4 and 15.6
Human PBMCs [2]; 5 days
  inhibition of PBMC proliferation: potently inhibited proliferation of PBMCs at nanomolar concentrations
Human PBMCs [3]; [5]
  IL-2 secretion: 4596.86 and 6574.88 and 5859.62
Human PBMCs [3]; [6]
  IL-2 secretion: 6581.16 and 6332.27 and 5840.51
Human PBMCs [3]; [7]
  IL-2 secretion: 4621.98 and 5392.72 and 5694.48
Human PBMCs [3]; [8]
  IL-2 secretion: 6342.48 and 6161.37 and 6860.66
Human PBMCs [3]; [9]
  IL-2 secretion: 5493.48 and 5276.26 and 6056.43
Human PBMCs [3]; [10]
  IL-2 secretion: 6261.35 and 6059.04 and 6285.42
Human PBMCs [3]; [11]
  IL-2 secretion: 4501.07 and 6329.65 and 6310.02
Human PBMCs [3]; [12]
  IL-2 secretion: 6367.08 and 6367.6 and 6351.64
Human PBMCs [3]; [13]
  IL-2 secretion: 5797.33 and 5310.02 and 6522.53
Human PBMCs [3]; [14]
  IL-2 secretion: 6337.77 and 6266.32 and 6532.48
Human PBMCs [3]; [15]
  IL-2 secretion: 5361.84 and 6623.29 and 6201.15
Human PBMCs [3]; [16]
  IL-2 secretion: 2712.8 and 2327.56 and 3337.76
Human PBMCs [3]; [17]
  IL-2 secretion: 5860.66 and 6735.83 and 6648.15
Human PBMCs [3]; [18]
  IL-2 secretion: 362.628 and 408.689 and 558.388
Human PBMCs [3]; [19]
  IL-2 secretion: 4848.63 and 4895.73 and 6502.64
Human PBMCs [3]; [20]
  IL-2 secretion: 251.4 and 437.215 and 324.156
Human PBMCs [3]; [21]
  IL-2 secretion: 4350.33 and 5093.33 and 4877.15
Human PBMCs [3]; [22]
  IL-2 secretion: 275.478 and 292.227 and 264.486
Human PBMCs [3]; [23]
  IL-2 secretion: 2837.9 and 2542.68 and 2708.61
Human PBMCs [3]; [24]
  IL-2 secretion: 278.356 and 273.907 and 280.974
mTOR [4]; 4h
  p-4EBP1 Brain, fold relative to no insulin, normalized to GAPDH: 1.26 and 1.03 and 0.71
  p-4EBP1 Muscle, fold relative to no insulin, normalized to GAPDH: 1 and 1.04 and 1.12
  p-RPS6 Brain, fold relative to no insulin, normalized to GAPDH: 1.23 and 1.15 and 1.11
  p-RPS6 Muscle, fold relative to no insulin, normalized to GAPDH: 0.9 and 1.3 and 1.14
mTOR [4]; 24h
  p-4EBP1 Brain, fold relative to no insulin, normalized to GAPDH: 0.98 and 0.96 and 0.78
  p-4EBP1 Muscle, fold relative to no insulin, normalized to GAPDH: 1.18 and 1.08 and 1.1
  p-RPS6 Brain, fold relative to no insulin, normalized to GAPDH: 0.89 and 0.78 and 1.52
  p-RPS6 Muscle, fold relative to no insulin, normalized to GAPDH: 1.11 and 1.39
mTOR [4]; [25]
  mTOR activity in brain (p-S6, p-4EBP1): potently inhibited mTOR signalling in both skeletal muscle and brain tissues
  mTOR activity in skeletal muscle (p-S6, p-4EBP1): potently inhibited mTOR signalling in both skeletal muscle and brain tissues
GBM43; day 0, individual mice
  Mouse weight: 23.5 g and 21.9 g and 22.3 g and 22.1 g and 19.3 g and 21.6 g
  Tumor size (measured by bioluminescence): 9520000 and 3020000 and 1670000 and 519000 and 248000 and 80200
GBM43; day 4, individual mice
  Mouse weight: 22.9 g and 20.8 g and 22.2 g (2×) and 23.1 g and 20.1 g
  Tumor size (measured by bioluminescence): 1310000 and 940000 and 1040000 and 482000 and 175000 and 141000
GBM43; day 7, individual mice
  Mouse weight: 22.7 g and 19.8 g and 21.2 g and 20.8 g and 19.6 g and 22.9 g
  Tumor size (measured by bioluminescence): 121000000 and 131000000 and 102000000 and 25200000 and 4850000
GBM43; day 10, individual mice
  Mouse weight: 20.5 g and 20.2 g and 21.6 g and 20.6 g and 19.4 g and 22 g
  Tumor size (measured by bioluminescence): 686000000 and 671000000 and 515000000 and 1100000000 and 3050000000 and 2140000
GBM43; individual mice, listed as RL-1
  Mouse survival: 17 days and 18 days and 19 days
